Here are results for eight molecules from US9346822B2, “Thienopyrimidine compounds and use thereof” (TAKEDA PHARMACEUTICAL COMPANY LIMITED, priority 2003, dated 2016).

For orientation: IC50 means the concentration that gives 50% inhibition. The term melting point denotes the temperature of the solid-liquid transition.

Chain of human GnRH receptor (P30968 whole entry): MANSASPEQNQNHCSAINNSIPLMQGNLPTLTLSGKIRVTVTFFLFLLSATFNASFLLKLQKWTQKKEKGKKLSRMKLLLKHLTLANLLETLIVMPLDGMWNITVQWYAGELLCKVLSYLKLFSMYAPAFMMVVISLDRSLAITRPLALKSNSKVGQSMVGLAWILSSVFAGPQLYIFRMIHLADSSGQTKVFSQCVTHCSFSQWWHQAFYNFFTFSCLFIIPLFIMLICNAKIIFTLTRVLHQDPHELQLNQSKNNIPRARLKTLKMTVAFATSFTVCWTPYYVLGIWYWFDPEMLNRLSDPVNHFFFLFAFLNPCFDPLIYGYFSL

The first data set addresses human GnRH receptor (Homo sapiens (Human), UniProt P30968). Put plainly: 125I-leuprorelin binding inhibition, CHO cell membrane fraction containing human GnRH receptor. The conditions noted are these: human GnRH receptor expressed in CHO cell membrane, 25° C., 60 minutes, from Hill plot. The method, then: To a tube containing 10 μl of a 3×10^−4 M aqueous solution of leuprorelin and 10 μl of 0.01 mg/ml lactoperoxidase was added 10 μl (37 MBq) of a solution of Na^125I. After stirring, 10 μl of 0.001% H2O2 was added, and a reaction was carried out at room temperature for 20 minutes. By adding 700 μl of a 0.05% TFA solution, the reaction was stopped, followed by purification by reversed-phase HPLC. The HPLC conditions used are shown below. ^125I-leuprorelin was eluted at a retention time of 26 to 27 minutes.
Human GnRH receptor-expressing CHO cells (10^9 cells) were suspended in phosphate-buffered saline supplemented with 5 mM EDTA (PBS-EDTA) and centrifuged at 100×g for 5 minutes. […]
The monkey and human membrane fractions prepared in the above (2) and (3) were diluted with the assay buffer to yield a 200 µg/ml dilution, each of which was then dispensed at 188 μl per tube. […] To determine maximum binding quantity, a reaction mixture containing 2 μl of 60% DMSO and 10 μl of 38 nM ^125I-leuprorelin was prepared. […]
Where the membrane fraction of the CHO with monkey and human GnRH receptors expressed was used, the reaction was carried out at 25° C. for 60 minutes. […] After this filtration, the radioactivity of ^125I-leuprorelin remaining on the filter paper was measured with a γ-counter. […]
As to `COCCN(C)Cc1c(-c2ccc(NC(=O)NOC)cc2)sc2c1c(=O)n(-c1ccccn1)c(=O)n2Cc1c(F)cccc1F` [Ex. Compd. No. 40, N-(4-(1-(2,6-difluorobenzyl)-5-(((2-methoxyethyl)(methyl)amino)methyl)-2,4-dioxo-3-(2-pyridinyl)-1,2,3,4-tetrahydrothieno[2,3-d]pyrimidin-6-yl)phenyl)-N′-methoxyurea], the IC50 was determined as 0.0002 µM. `CCOCCN(C)Cc1c(-c2ccc(NC(=O)NOC)cc2)sc2c1c(=O)n(-c1ccccn1)c(=O)n2Cc1c(F)cccc1F` [Ex. Compd. No. 41, N-(4-(1-(2,6-difluorobenzyl)-5-(((2-ethoxyethyl)(methyl)amino)methyl)-2,4-dioxo-3-(2-pyridinyl)-1,2,3,4-tetrahydrothieno[2,3-d]pyrimidin-6-yl)phenyl)-N′-methoxyurea]: the IC50 is 0.0001 µM.

System in a further data set: not given
Assay: not given
Conditions: not given
As for `CONC(=O)Nc1ccc(-c2sc3c(c2CN[C@H](C)c2ccccc2)c(=O)n(-c2ccccc2)c(=O)n3Cc2c(F)cccc2F)cc1` (hydrate or solvate) [Reference Example 28, N-(4-(5-(((1R)-1-phenylethylamino)methyl)-1-(2,6-difluorobenzyl)-1,2,3,4-tetrahydro-2,4-dioxo-3-phenylthieno[2,3-d]pyrimidin-6-yl)phenyl)-N′-methoxyurea], the melting point fell in the range of 180 to 182 °C. The molecule `CONC(=O)Nc1ccc(-c2sc3c(c2CN[C@@H](C)c2ccccc2)c(=O)n(-c2ccccc2)c(=O)n3Cc2c(F)cccc2F)cc1` [Reference Example 29, N-(4-(5-(((1S)-1-phenylethylamino)methyl)-1-(2,6-difluorobenzyl)-1,2,3,4-tetrahydro-2,4-dioxo-3-phenylthieno[2,3-d]pyrimidin-6-yl)phenyl)-N′-methoxyurea] registered a melting point of 182 to 185 °C.

`COCC(c1ccccc1)N(C)Cc1c(-c2ccc(NC(=O)NOC)cc2)sc2c1c(=O)n(-c1ccccc1)c(=O)n2Cc1c(F)cccc1F` (centres unmarked) [Reference Example 32, N-(4-(1-(2,6-difluorobenzyl)-5-((2-methoxy-1-phenylethyl(methyl)amino)methyl)-1,2,3,4-tetrahydro-2,4-dioxo-3-phenylthieno[2,3-d]pyrimidin-6-yl)phenyl)-N′-methoxyurea] had a melting point of 169 to 172 °C. On the same count and under the same terms, the figure for `COCC(C)N(C)Cc1c(-c2ccc(NC(=O)NOC)cc2)sc2c1c(=O)n(-c1ccccc1)c(=O)n2Cc1c(F)cccc1F` (centres unmarked) [Reference Example 34, N-(4-(1-(2,6-difluorobenzyl)-5-(((2-methoxy-1-methylethyl)methylamino)methyl)-1,2,3,4-tetrahydro-2,4-dioxo-3-phenylthieno[2,3-d]pyrimidin-6-yl)phenyl)-N′-methoxyurea] is 154 to 155 °C; for `CONC(=O)Nc1ccc(-c2sc3c(c2CN(C)[C@H](C)c2ccccc2)c(=O)n(-c2ccccn2)c(=O)n3Cc2c(F)cccc2F)cc1` [Reference Example 38, N-(4-(5-((methyl((1R)-1-phenylethyl)amino)methyl)-1-(2,6-difluorobenzyl)-1,2,3,4-tetrahydro-2,4-dioxo-3-pyridin-2-ylthieno[2,3-d]pyrimidin-6-yl)phenyl)-N′-methoxyurea] it is 168 to 170 °C. `CONC(=O)Nc1ccc(-c2sc3c(c2CN(C)[C@H](C)c2ccccc2)c(=O)n(-c2ccc(F)cn2)c(=O)n3Cc2c(F)cccc2F)cc1` [Reference Example 39, N-(4-(5-((methyl((1R)-1-phenylethyl)amino)methyl)-1-(2,6-difluorobenzyl)-1,2,3,4-tetrahydro-2,4-dioxo-3-(5-fluoropyridin-2-yl)thieno[2,3-d]pyrimidin-6-yl)phenyl)-N′-methoxyurea]: the melting point fell in the range of 128 to 130 °C.
